In ChEMBL document CHEMBL5712074, “Divergent clonal evolution of castration-resistant neuroendocrine prostate cancer” (Nat Med, 2016) one finds Activity data, which are given here for one molecule.

This test concerns NCI-H660. Nature of the test: Cytotoxicity against human NCI-H660 cells assessed as decrease in cell viability at 5 to 10 uM incubated for 48 hrs by CellTiter-Blue assay. It counts as functional, cell-based. The following applies: dose 5-10 µM. A general note: Resazurin is reduced to fluorescent resorufin, in cell work by metabolically active cells.

Each structure is given as a SMILES string. The source made the active and inactive calls. No cut-off for these calls is given here.

As to `CCCc1cc(C)[nH]c(=O)c1CNC(=O)c1cc(-c2ccnc(N3CCN(C)CC3)c2)cc2c1cnn2C(C)C`, the result was Active.
